Numbers after ± are expanded uncertainties.
Conditions: Liquid, Closed cell (Static) method

FCC(F)(F)F [1,1,1,2-tetrafluoroethane]
Conditions	vapor or sublimation pressure [kPa]
258.2 K	162 ± 5
262.2 K	193 ± 5
272.2 K	286 ± 5
282.6 K	411 ± 5
292.9 K	569 ± 5
302.7 K	763 ± 6

FC(F)(F)C1(F)OC1(F)F (stereo unspecified) [2,2,3-trifluoro-3-(trifluoromethyl)oxirane]
Conditions	vapor or sublimation pressure [kPa]
273 K	309 ± 5
278 K	366 ± 6
283 K	431 ± 6
288 K	505 ± 6
293 K	588 ± 6

O=C=O [carbon dioxide]
Conditions	vapor or sublimation pressure [kPa]
273 K	3387 ± 69
283 K	4406 ± 89
293 K	5627 ± 110
298.1 K	6323 ± 130

FC(F)Cl [chlorodifluoromethane]
Conditions	vapor or sublimation pressure [kPa]
273 K	495 ± 5
275 K	528 ± 5
277 K	562 ± 5
279 K	599 ± 5
281 K	637 ± 5
283 K	677 ± 5
285.1 K	718 ± 6
286.9 K	761 ± 6
289 K	807 ± 6
291.1 K	855 ± 6
295.1 K	955 ± 6

Reference: the NIST ThermoML archive (doi:10.1021/je400919u)
